The text below walks through data of patent US4900730A, “Preparation which promotes the absorption of peptides” (priority 1981, dated 1990).

Series [1] in a line: Rectal circulation with fatty acids as promoters (Example 15, Example 1 repeated). On the procedure:
Absorption effects under conditions with various tonicities were examined.
The experiment was conducted in the following manner.
(The units in the Table are percents.)

Series [2] can be described thus: Penicillin suppositories, concentration in plasma (Example 34). The format is in vivo, S.D. male rats. Particulars: Four fold tonicity suppository with 3.6% NaCl and 5% sodium adipate, intrarectal. On the procedure:
The dispersion was filled in a silicone tube (inner diameter 2.5 mm) to produce a rod-like suppository of 50 mg as a control suppository.
These suppositories were intrarectally administered to S.D. male rats (weighing about 250 g) and the concentration of Carbenicillin in blood was measured.
The concentration of Carbenicillin in blood was determined on sampled plasma by the use of Sarcina luteus ATCC 9341 in accordance with the conventional method.
The same experiment was effected on Dicloxacillin.Na.

For series [3] the following is noted: rat, in vivo.
Experimental: (§1) The experiment was conducted in the following manner. Sprague Dawley rats (male), weighing 200 to 300 g, were narcotized (after fast for 20 hours) with pentobarbital (50 mg/kg) and thereafter subjected to hypoabdominal incision for a first cannulation at a position about 1.5 cm from anus and also another cannulation at a position 5 cm above the first cannulation. Subsequently, the rectum was internally washed with about 50 ml of isotonic sodium chloride solution kept at 38° C., and samples each of 10 ml were circulated through rectum for 5 minutes (2 ml/minute) to make the concentration in the system constant. Then, 5 ml of each sample was circulated at a flow rate of 2 ml/minute, and samples each of 0.05 ml were collected at intervals of 10 minutes from 0 minute. Each sample was diluted to 5 ml with distilled water and the quantity of medicine disappeared by absorption was determined by UV spectrophotometer.
Quantities of 0.5 W/W % Cefmetazole.Na disappeared by absorption under isotonic and three-fold tonic conditions were determined, respectively, using sodium malate, sodium pyruvate, sodium phosphenolpyruvate, sodium β-hydroxybutyrate, sodium β-hydroxy glutarate, and sodium 2-phospho-D-glycerate.
Series [4] in a line: Rectal circulation: Cephalothin disappeared by absorption (Examples 10-14, 16-18). Particulars: rat, in vivo. On the procedure: The experiments were conducted similarly as in Example 1. […] Each sample was diluted and the quantity of Cephalothin disappeared was determined by UV-spectrophotometer of high-speed liquid chromatography.
A short description of series [5]: Cephalothin concentration in blood after injection through anus (Example 6). Particulars: with 6% sodium chloride and 1.0% disodium EDTA mono-ethylate vs 2% Cephalothin.Na control. The format is in vivo, rat.
Experimental: Using 2% solution of Cephalothin.Na (in 0.1M Tris-HCl buffer, pH 8.0) as Control, an injection agent was prepared by adding 6% sodium chloride and 1.0% disodium EDTA mono-ethylate to said solution.
The conditions of series [6]: rabbit, in vivo, 250 mg/kg.
The conditions of series [7]: rat, in vivo. This is another data set of the same source.
Experimental: as §1
The nature of series [8]: Calcium concentration after intrarectal calcitonin preparation, relative effect (Example 8). The format is in vivo, SD rats. The following applies: after one hour, CVP and CT set at standard value of 1.
Setting [9] is: Table 9, fatty acid 0.1 W/V %, Example 1 repeated, X 1.
Setting [10] is: Table 9, fatty acid 0.1 W/V %, Example 1 repeated, X 4.

No end group written: not given here.

As for `CCCC(=O)O` [Butyric acid, butyric acid], in series [1] (rat, in vivo), the “medicine disappeared by absorption, Osmotic pressure X 1” value is on record as 9.9 percents; the “medicine disappeared by absorption, Osmotic pressure X 2” value is on record as 17.1 percents; the “medicine disappeared by absorption, Osmotic pressure X 4” value amounted to 21.0 percents.
Regarding `CC1(C)S[C@@H]2[C@H](NC(=O)C(C(=O)O)c3ccccc3)C(=O)N2[C@H]1C(=O)O` (stereo partly shown) [Carbenicillin.Na], in series [2], the “Concentration in plasma 5 min.” value was 5000 ng/mL, the “Concentration in plasma 10 min.” value worked out at 14700 ng/mL, the “Concentration in plasma 20 min.” value was determined as 11500 ng/mL and the “Concentration in plasma 30 min.” value was 8900 ng/mL. Further, in series [2], the “Concentration in plasma 60 min.” value was found to be 5100 ng/mL, the “Concentration in plasma 90 min.” value stood at 3100 ng/mL and the “Concentration in plasma 120 min.” value came to 1600 ng/mL.
As for `CO[C@@]1(NC(=O)CSCC#N)C(=O)N2C(C(=O)O)=C(CSc3nnnn3C)CS[C@@H]21` [Cefmetazole.Na], in series [3], the “quantity of Cefmetazole.Na disappeared by absorption” value is “practically negligible”.
`CC(=O)OCC1=C(C(=O)O)N2C(=O)[C@@H](NC(=O)Cc3cccs3)[C@H]2SC1` [Cephalothin.Na, reference compound]: in series [4], the “Cephalothin disappeared by absorption, Osmotic pressure (%) X 1” value was found to be 1.2%; the “Cephalothin disappeared by absorption, Osmotic pressure (%) X 2” value came to 1.6%; the “Cephalothin disappeared by absorption, Osmotic pressure (%) X 4” value is 3.1%; the “Cephalothin disappeared by absorption, Osmotic pressure X 1” value is reported as 1.2 percents. In series [4], the “Cephalothin disappeared by absorption, Osmotic pressure X 2” value stood at 1.6 percents and the “Cephalothin disappeared by absorption, Osmotic pressure X 4” value worked out at 3.1 percents. The concentrations in blood result in series [5] is “significantly increased”.
For `Cc1onc(-c2c(Cl)cccc2Cl)c1C(=O)N[C@@H]1C(=O)N2[C@@H]1SC(C)(C)[C@@H]2C(=O)O` [Dicloxacillin.Na], in series [2], the “Concentration in plasma 5 min.” value was found to be 4500 ng/mL, the “Concentration in plasma 10 min.” value is 15400 ng/mL, the “Concentration in plasma 20 min.” value was determined as 10500 ng/mL and the “Concentration in plasma 30 min.” value is 7500 ng/mL. In series [2], the “Concentration in plasma 60 min.” value amounted to 4600 ng/mL, the “Concentration in plasma 90 min.” value stood at 2900 ng/mL and the “Concentration in plasma 120 min.” value is 900 ng/mL.
In the case of `CCCCCCCCCC(=O)[O-].[Na+]` [Sodium caprate, sodium caprate], the “medicine disappeared by absorption, Osmotic pressure X 1” value in series [1] (setting [9]) is 5.2 percents. In addition, the “medicine disappeared by absorption, Osmotic pressure X 4” value in series [1] (setting [10]) was 8.6 percents.
For `CCCCCC(=O)[O-].[Na+]` [Sodium caproate, sodium caproate], in series [1] (setting [9]), the “medicine disappeared by absorption, Osmotic pressure X 1” value was found to be 10.4 percents. Besides, the “medicine disappeared by absorption, Osmotic pressure X 2” value in series [1] (Table 9, fatty acid 0.1 W/V %, Example 1 repeated, X 2) was 14.7 percents. Also, the “medicine disappeared by absorption, Osmotic pressure X 4” value in series [1] (setting [10]) came to 17.2 percents.
As for `CCCCCCCC(=O)[O-].[Na+]` [Sodium caprylate, sodium caprylate], the “medicine disappeared by absorption, Osmotic pressure X 1” value in series [1] (setting [9]) turned out to be 5.8 percents. Also, in series [1] (setting [10]), the “medicine disappeared by absorption, Osmotic pressure X 4” value is recorded as 13.0 percents.
On the same counts, the results for `CCCCCCCCCCCC(=O)[O-].[Na+]` [Sodium laurate, sodium laurate] are 3.9 percents and 6.5 percents.
Turning to `CCCC(=O)C(=O)O` [α-ketovaleric acid], in series [4], the “Cephalothin disappeared by absorption, Osmotic pressure (%) X 1” value was determined as 9.8%; the “Cephalothin disappeared by absorption, Osmotic pressure (%) X 2” value was found to be 14.7%; the “Cephalothin disappeared by absorption, Osmotic pressure (%) X 4” value was 23.2%.
With `N[C@@H](CC(C(=O)O)C(=O)O)C(=O)O` [γ-carboxyglutamic acid], in series [4], the “Cephalothin disappeared by absorption, Osmotic pressure X 1” value worked out at 13.1 percents; the “Cephalothin disappeared by absorption, Osmotic pressure X 2” value came out at 24.6 percents; the “Cephalothin disappeared by absorption, Osmotic pressure X 4” value is on record as 31.4 percents.
The matching figures for `NCCCCCC(=O)O` [ε-aminocaproic acid]: 7.1 percents, 11.8 percents and 17.0 percents.
Take “Colistin methane sulfonate sodium [Colistin methanesulfonate sodium]”: the “Excreted amount in urine (0-6 hr, %)” value in series [6] is 1.0%.
Same read-out and setting: for Polymyxin B the value was 0.8%.
Regarding Tuberactinomycin, the absorptions through rectum entry in series [7] is “increased by the presence of EDTA.2Na and sodium chloride”.
On to “calcitonin (CGNLSTCMLGTYTQDFNKFHTFPQTAIGVGAP; ends and bridges not checked; cysteine pairing not given here; UniProt P01258 85-116, looked up) [CT]”, for which the “relative effect on calcium concentration, Isotonic” value in series [8] (glucose 0.25M) was 1. In series [8] (glucose 1.5M), the “relative effect on calcium concentration, 6-fold tonic” value was found to be 1.67. In addition, the “relative effect on calcium concentration, 3-fold tonic” value in series [8] (glucose […]) is recorded as 1.05.
